Assay results: patent US20070244076A1, “Site and Rate Selective Prodrug Formulations of D609 with Antioxidant and Anticancer Activity” (priority 2003, published 2007)
Several values for one entry are separate records, joined by “and”; a condition that tells them apart may be missing. Identical values can stand only once.

Key:
lymphocytes = assay: IR-induced oxidative events in lymphocytes; format: cell-based; settings: pre-incubation of lymphocytes
[1] = test system: leukemia cells (U937, Jurkat, SupT13 and A20), solid tumor cells (HT1080); assay: MTT cell viability, leukemia and solid tumor cell panel; format: cell-based; settings: 48 hours
Source text: The results, shown in FIG. 7A and FIG. 7B, are expressed as a percent of vehicle control and presented as means±SEM (n=3).

[2] = target: phospholipase C (Type XI from B. cereus) (Bacillus cereus, UniProt P09598); format: biochemical; settings: 2 hrs at 37° C., pNPP 40 mM
Description: (§1) In this study, p-nitrophenyl-phosphorylcholine (pNPP, 40 mM) was incubated with 2 U/ml phospholipase C (Type XI from B. cereus) in the presence or absence of various concentrations of inhibitors for 2 hrs at 37° C. The amount of the cleaved substrate pNPP was quantified by determination of the optical density at 410 nm using an ELISA reader. The results are expressed as percent of vehicle control and presented as means±SEM (n=3) (FIG. 9A). NBD-C6-ceramide and PC were incubated with U937 cell lysates containing 50 μg protein in the presence or absence of various concentrations of inhibitors for 30 min at 30° C. The formation of NBD-C6-sphingomyelin as analyzed by TLC and quantified by determination of the fluorescent intensity of NBD-C6-sphingomyelin using a phosphorimager. The results are expressed as percent of vehicle control (FIG. 9B). U937 cells were incubated with different concentrations of inhibitors for 48 hours.

A20 cells = assay: MTT cell viability and growth, A20 cells
Description: The cell viability was analyzed by MTT assay after A20 cells were cultured with vehicle or different concentrations of D609 for 48 hrs. […] A20 cells were untreated (Control), irradiated (IR 4 Gy), incubated with D609 alone, or treated with both D609 and IR. The cell viability and/or proliferation were measured by MTT assay at different times after the cells were placed into well of 96-well plate (2×10^4/0.2 ml/well). The results are expressed as means±SEM (n=3) (FIG. 13B).

[3] = test system: ceramide and DAG levels in U937 cells; assay: Ceramide and DAG levels in U937 cells by DAG kinase assay; format: cell-based, Human; settings: 2 hrs
Description: (§2) To validate if inhibition of SMS may mediate D609-induced tumor cell death, the cellular level of SMS activity in U937 cells treated with vehicle or D609 were studied. […] NBD-C6-ceramide and PC were incubated with the cell lysates containing 50 μg proteins for 30 min at 30° C. The formation of NBD-C6-sphingomyelin was analyzed by TLC and quantified by determination of the fluorescent intensity of NBD-C6-sphingomyelin using a phosphoimager. The results, shown in FIGS. 10B-10D, are expressed as percent of the control cultures with vehicle and presented as means±SEM (n=3). […] The levels of ceramide (FIG. 10B) and DAG (FIG. 10C) were analyzed by the DAG kinase assay, normalized to the levels of cellular phospholipid and expressed as pmole/nmole phophate (pi) or the ratio of ceramide and DAG (FIG. 10D). The results represent means±SEM (n=3).

A20 lymphoma = settings: 50 mg/kg i.v., alone or with 6.0 Gy irradiation
Description: A20 lymphoma was induced in normal BALB/c male mice by the tail vein injection of 5×10^5 cultured A20 cells. Two days later, the mice were assigned to groups of 10 mice each and received i.v. 1) saline, 2) 50 mg/kg D609, 3) saline plus 6.0 Gy irradiation or 4) D609 plus irradiation. Total body irradiation was given 10 min after D609 injection. Survival of each mouse was then followed by daily monitoring and weighing (5×/week).

[4] = test system: sphingomyelin synthase (SMS); assay: SMS activity in U937 cell lysates with inhibitor added (cell lysate-based in vitro assay); format: biochemical, Human; settings: 30 min at 30° C.
Description: as §1

[5] = test system: Mouse splenic lymphocytes; assay: Mitogen-stimulated lymphocyte proliferation, 3H-thymidine incorporation; format: cell-based; settings: 188 μM=50 μg/ml
Description: (§3) Studies were conducted to determine whether D609 enhances mouse splenic lymphocyte mitogenic responses and IFNγ production. Mouse splenic lymphocytes at 2.5×10^6/ml were stimulated with LPS or ConA in the presence or absence of D609. The cell proliferation was measure by 3H-thymidine incorporation after the cells were cultured with LPS (FIG. 8A) or with ConA (FIG. 8B). […] In addition, the supernatants of ConA-stimulated lymphocyte cultures were harvested at various times and measured for IFNγ production by ELISA (FIG. 8C).

[6] = test system: normal human diploid fibroblasts-WI38 cells; assay: MTT cell viability, WI38 normal fibroblasts; format: cell-based; settings: for LD50: normal cells
[7] = test system: Mouse splenic lymphocytes; assay: IFNγ production of ConA-stimulated lymphocytes, ELISA; format: cell-based
Description: as §3

[8] = test system: sphingomyelin synthase (SMS); assay: Cellular SMS activity in U937 cells treated with drug; format: cell-based, Human; settings: for inhibition of SMS activity: 177 μM, 0.5, 1 and 2 h
Description: Analysis of sphingomyelin synthase (SMS) activity: U937 cells (2×10^6/ml) were cultured with vehicle (0.5% DMSO) or 177 μM D609 or prodrug 2. After 0.5, 1 and 2 h incubation, the cells were harvested, washed and then homogenized in ice-cold lysis buffer (250 mM sucrose; 5 mM HEPES, pH 7.4; 1 mM phenylmethylsulfonyl fluoride; and 20 μg/ml each of chymostatin, leupeptin, antipain, and pepstatin) by 15 passages through a 27-gauge×0.5-inch needle. The cell lysates were first centrifuged at 1000×g for 10 min at 4° C. to remove all the unbroken cells and nuclei. The resultant supernatants were quantified for protein concentration using the Bio-Rad protein assay reagent (Bio-Rad, Hercules, Calif.) and assayed for SMS activity as follows: aliquots of the cell lysates containing 50 μg protein were preincubated for 10 min at 30° C. in a total volume of 50 μl of incubation buffer (50 mM Tris-HCl, pH 7.4; 25 mM KCl; and 0.5 mM EDTA). The reaction was started by addition of 2 nmol NBD C6-ceramide and 12 nmol PC to give a final volume of 50 μl and incubated for 30 min. The reaction was stopped by addition of 200 μl chloroform/methanol (1:1, v/v); the mixture was vortexed and kept on ice. The chloroform/methanol fraction was isolated, and the lipids were resolved by TLC (silica gel) in chloroform:methanol:15 mM CaCl2 (90:52.5:12) (Luberto and Hannun, 1998; Meng et al., 2004). The formation of NBD-C6-sphingomyelin was quantified by determination of the fluorescent intensity of NBD-C6-sphingomyelin using a phosphoimager. Values for blanks were subtracted from total values of NBD-C6-sphingmyelin to yield the amount of NBD-C6-sphingmyelin produced in each sample.
as §2

[9] = rat, plasma
Description: At various times of the incubation, the hydrolysis of prodrug 2 was monitored by HPLC analysis, and the release of D609 was determined by measuring the colorimetric reaction of D609 with DTNB (3 mM). The data are presented as mean±SE of three independent assays.
After incubation at 37° C., aliquots (100 μl) of the plasma were removed at various times and immediately mixed with an equal volume of DTNB in acetonitrile (3 mM DTNB). Acetonitrile was used to quickly inactivate plasma esterases and to precipitate plasma proteins. After removal of the precipitated plasma proteins by centrifugation, the concentrations of the D609 prodrug and D609 in the clear plasma supernatants were determined by HPLC and DTNB assays, respectively, as described above.

Sequence of phospholipase C (Type XI from B. cereus) (P09598 39-283 limits assumed): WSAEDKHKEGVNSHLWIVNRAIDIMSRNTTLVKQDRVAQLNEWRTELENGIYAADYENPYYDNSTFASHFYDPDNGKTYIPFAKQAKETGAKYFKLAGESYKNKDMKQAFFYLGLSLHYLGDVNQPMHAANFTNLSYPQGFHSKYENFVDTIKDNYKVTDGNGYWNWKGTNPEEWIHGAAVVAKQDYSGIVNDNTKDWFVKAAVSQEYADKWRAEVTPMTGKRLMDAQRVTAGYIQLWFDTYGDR

SMILES	IR-induced events (ROS production, decrease in GSH, oxidative damage to proteins and lipids, NF-κB activation) (lymphocytes)	cell viability [1]	inhibition of PC-PLC activity [2]	LD50 (A20 cells; 48 hrs)	response of A20 cells to IR (A20 cells; IR 4 Gy)	level of DAG [3]	level of ceramide [3]	ratio between ceramide and DAG [3]	therapeutic response (A20 lymphoma)	inhibition of SMS activity [4]	mitogenic responses to LPS or ConA [5]	cell viability ([6]; 48 hours)	LD50 [6]	production of interferon-γ (IFNγ) [7]	inhibition of SMS activity [8]	IC50 ([8]; U937 cells cultured 2 hrs)	IC50, SMS activity ([8]; U937 cells cultured 2 hrs)	T1/2 [9]
S=C([S-])OC1CC2CC1C1CCCC21.[K+] (centres unmarked) [Prodrug D609, Tricyclodecan-9-yl-xanthogenate]	significant diminution	dose-dependent reduction in cell viability	dose-dependently inhibited	about 106 μM and ~28.2 μg/ml	enhanced their response to IR	decrease in that of DAG	increase in the level of ceramide	dramatically elevated	no significant therapeutic response	inhibited the SMS activity in a dose-dependent manner	enhanced their mitogenic responses	relatively resistant	267.51 µM	significantly augmented	time-dependent inhibition of SMS activity	~90 µM	~23.8 µg/mL	–
CCCC(=O)OCSC(=S)OC1CC2CC1C1CCCC21 (centres unmarked) [Prodrug 2, S-methyleneoxybutyryl D609]	–	–	–	–	–	–	–	–	–	–	–	–	333.43 µM	–	significantly greater	–	–	7.559 s
